How the values were obtained:
Format in all cases: cell-based
[1] = test system: human prostate cancer PC-3 cells; assay: Annexin V/PI apoptosis flow cytometry (PC-3); conditions: M1 40 μM, 24 h, vs vehicle; FIG. 9
Description: (§1) Human malignant melanoma A375.S2 cell line was obtained from the American Type Culture Collection (ATCC, USA). A375.S2 cells were grown in minimum essential medium supplemented with 10% fetal bovine serum, 100 U/mL of penicillin, and 100 μg/mL of streptomycin (Life Technologies, USA). PC-3 cells (hormone-independent human prostate cancer cells) were cultured in Ham's F12K medium supplemented with 7% fetal bovine serum, 100 U/mL of penicillin, and 100 μg/mL of streptomycin (Life Technologies, USA). Cells were cultured at 37° C. in a 5% CO2 incubator.
(§2) Furthermore, to investigate mechanisms underlying the apoptosis-inducing activity of M1, we detected Annexin V/PI double staining by flow cytometry and apoptosis related protein expression by Western blot. PC-3 cells were plate 2.5×10^5 per 6-well plates, and incubated with M1 (40 μM) or vehicle for 24 h. The cells were harvested by gently trypsinizing and wash with ice-PBS twice, then stained with Annexin V-FITC/PI apoptosis detection kit (BD Biosciences, USA) according to the manufacturer's instructions and measured using a flow cytometer within 1 hour. […] The data are expressed as the means±SEM for three separate experiments. ***p<0.005. (One-way ANOVA and subsequent Scheffe's test).

[2] = test system: human prostate cancer PC-3 cells; assay: Colony formation assay (PC-3); conditions: M1 10, 20 and 40 μM, 10 days, dose-dependent, vs vehicle; FIG. 7
Description: as §1
(§3) Plate 500 cells per well into 6-well plates and incubated with different M1 concentrations (10, 20, and 40 μM) or vehicle for 10 days. Cells were fixed in 4% paraformaldehyde after washing with cold PBS twice, and stained with 0.5% crystal violet 10 min at room temperature.
Seeding 500 cells per 6-well plates and treated for 10 days with different concentrations of M1 (10, 20, and 40 μM) or vehicle. The cells were fixed in 4% paraformaldehyde for 15 min, after washing with cold PBS twice, and stained with 0.5% crystal violet 10 min at room temperature. […] The data are expressed as the means±SEM for three separate experiments. *p<0.05, ***p<0.005. (One-way ANOVA and subsequent Scheffe's test).

[3] = test system: human prostate cancer PC-3 cells; assay: Wound healing assay (PC-3); conditions: M1 20 or 40 μM, 24 h, vs vehicle; FIG. 8
Description: as §1
(§4) Cells were seeded at 6×10^5 into 6-well plates and incubated for 24 h. Then used a sterile 200-μl pipette tip to create a straight gap of constant width, and each well was washed with sterile PBS. Next, the cells were incubated with various concentrations of M1 (10, 20, and 40 μM) or vehicle. The cells were photographed at 0 and 24 h under a microscope at 100× magnification.
Next, we performed whether M1 reduces the migration ability by wound healing assay in PC-3 cells. Cells were seeded at 6×10^5 per 6-well plates in culture medium and were grown overnight at 37° C. in a 5% CO2 incubator. Each well was scratched with sterile 200-μl pipette tip in the cell monolayer, and washed with sterile PBS twice. […] The data are expressed as the means±SEM for three separate experiments. *p<0.05, ***p<0.005. […]

[4] = test system: human malignant melanoma A375.S2 cells; assay: Annexin V/PI apoptosis flow cytometry (A375.S2); conditions: 24 h, FIG. 4
Description: as §1
A375.S2 cells were seeded at 2.5×10^5 into 6-well plates, and incubated with M1 (40 μM), cisplatin (50 μM) or vehicle for 24 h. To perform apoptosis using an Annexin V-FITC/PI apoptosis detection kit (BD Biosciences, USA) according to the manufacturer's instructions, and then analyzed by flow cytometry (BD Biosciences).
(§5) To further investigate mechanism of action of M1, we used Annexin V/PI double staining by flow cytometry and crucial protein expression by Western blot analysis to measured targeting hallmarks of apoptosis.

[5] = test system: human malignant melanoma A375.S2 cells; assay: Wound healing assay (A375.S2); conditions: M1 20 or 40 μM, 24 h, vs control; FIG. 3
Description: as §1, §4
To investigates the effect of M1 on the inhibition of migration ability of melanoma cells, A375.S2 cells were subjected to the wound healing assay with various concentration of M1.

[6] = test system: human malignant melanoma A375.S2 cells; assay: Cell viability, trypan blue exclusion (A375.S2); conditions: 24 h, FIG. 1
Description: as §1
(§6) Seeding cells (2.5×10^5 cells/well) in 6-well plates and incubated with different concentrations of M1 (10, 20 and 40 μM), cisplatin (50 μM) or vehicle for 24 h. Cells were detached by trypsinization and the cell numbers were counted by trypan blue exclusion method.
To investigates the effect of M1 on the inhibition of human malignant melanoma cell growth, A375 cells were cultured with various concentration of M1.

[7] = test system: human malignant melanoma A375.S2 cells; assay: Colony formation assay (A375.S2); conditions: M1 10, 20 and 40 μM, 10 days; FIG. 2
Description: as §1, §3
To investigates the effect of M1 on the reduction of colony formation ability of melanoma cells, A375. S2 cells were subjected to colony formation assay with various concentration of M1.

[8] = test system: human malignant melanoma A375.S2 cells; assay: Western blot of apoptosis-related proteins (A375.S2); conditions: A375.S2, M1 10, 20 and 40 μM, 24 h, FIGS. 5A, 5B
Description: as §1
(§7) Plate 4×10^5 cells per well into 6-cm dish, and incubated with different concentrations of M1 (10, 20 and 40 μM), cisplatin (50 μM) or vehicle for 24 h. The cells were exacted by disruption in RIPA buffer (Sigma-Aldrich, Germany) in the presence of protease inhibitor cocktail. Each protein sample was run on a 12% SDS-PAGE gel and transferred to PVDF membrane, which was then incubated for 1 h at room temperature in blocking buffer and then overnight at 4° C. with primary antibodies against caspase-3, caspase-9 (Cell Signaling Technology, USA), Bax, Bcl-2 or β-actin (Santa Cruz, USA). The membrane was incubated for 1 h at room temperature with HRP-conjugated secondary antibodies. The proteins were detected using enhanced chemiluminescence reagent (GE, UK).
as §5

[9] = test system: human prostate cancer PC-3 cells; assay: Western blot of apoptosis-related proteins (PC-3); conditions: PC-3, M1 10, 20 and 40 μM, 24 h, FIGS. 10A, 10B
Description: as §1, §7, §2

[10] = test system: human prostate cancer PC-3 cells; assay: Cell viability, trypan blue exclusion (PC-3); conditions: M1 10, 20 and 40 μM, 24 h, dose-dependent; FIG. 6
Description: as §1, §6
Plate human prostatic cancer cell line PC-3 2.5×10^5 per 6-well plates and cultured in Ham's F12K medium supplemented with 7% fetal bovine serum, 100 U/mL of penicillin, and 100 μg/mL of streptomycin (Life Technologies, USA). Cells were cultured overnight at 37° C. in a 5% CO2 incubator, and then treated with different concentrations of M1 (10, 20 and 40 μM) or vehicle for 24 h, and the cell numbers were counted by trypan blue exclusion method. […] The data are expressed as the means±SEM for three separate experiments. *p<0.05, **p<0.01. […]

Compound | percentage of PC-3 cells with Annexin V/PI double staining [1] | colony formation ability of PC-3 cells [2] | cell migration ability of PC-3 cells [3] | percentage of A375.S2 cells with Annexin V/PI double staining ([4]; M1 40 μM) | cell migration ability of A375.S2 cells [5] | cell numbers of A375.S2 cells ([6]; M1 10, 20 and 40 μM, vs control) | numbers of colonies of A375.S2 cells [7] | Bcl-2 protein expression ([8]; dose-dependent) | pro-caspase-3 protein expression ([8]; dose-dependent) | pro-caspase-9 protein expression ([8]; dose-dependent) | levels of caspase-3 [8] | levels of caspase-9 [8] | Bax/Bc1-2 ratio ([9]; dose-dependent) | protein levels of caspase-9 ([9]; dose-dependent) | pro-caspase-3 protein expression [9] | pro-caspase-9 protein expression [9] | cell numbers of PC-3 cells [10] | percentage of A375.S2 cells with Annexin V/PI double staining ([4]; cisplatin 50 μM) | cell numbers of A375.S2 cells ([6]; cisplatin 50 μM, positive control)
CC(C)=CCC[C@](C)(O[C@@H]1OC(CO)[C@@H](O)[C@@H](O)C1O)[C@H]1CC[C@]2(C)C1[C@H](O)CC1[C@@]3(C)CC[C@H](O)C(C)(C)C3CC[C@]12C (stereo partly drawn) [M1, 20-O-β-D-glucopyranosyl-20(S)-protopanaxadiol] | greatly increased the percentage | inhibited the colony formation ability | significantly decreased the cell migration ability | greatly increased the percentage | markedly decreased the cell migration ability | decreased the cell numbers | reduced dose-dependently | decrease | decrease | decrease | significantly increased | significantly increased | increased | increased | significantly decreased | significantly decreased | significantly decrease cell numbers | – | –
N.N.[Cl][Pt][Cl] [cisplatin, reference compound] | – | – | – | – | – | – | – | – | – | – | – | – | – | – | – | – | – | greatly increased the percentage | decreased the cell numbers

— patent publication US20220218729A1, “USE OF GINSENOSIDE M1 FOR TREATING CANCER” (priority 2019, published 2022)
